Patent US20220089592A1, “IMIDAZO[1,2-A]PYRIDINYL DERIVATIVES AS IRAK4 INHIBITORS” (priority 2019, published 2022)
Counter-ions that a name gives are not always drawn.

Target: T1, IRAK4 (Homo sapiens, UniProt Q9NWZ3)
T1 sequence (Q9NWZ3 1-460): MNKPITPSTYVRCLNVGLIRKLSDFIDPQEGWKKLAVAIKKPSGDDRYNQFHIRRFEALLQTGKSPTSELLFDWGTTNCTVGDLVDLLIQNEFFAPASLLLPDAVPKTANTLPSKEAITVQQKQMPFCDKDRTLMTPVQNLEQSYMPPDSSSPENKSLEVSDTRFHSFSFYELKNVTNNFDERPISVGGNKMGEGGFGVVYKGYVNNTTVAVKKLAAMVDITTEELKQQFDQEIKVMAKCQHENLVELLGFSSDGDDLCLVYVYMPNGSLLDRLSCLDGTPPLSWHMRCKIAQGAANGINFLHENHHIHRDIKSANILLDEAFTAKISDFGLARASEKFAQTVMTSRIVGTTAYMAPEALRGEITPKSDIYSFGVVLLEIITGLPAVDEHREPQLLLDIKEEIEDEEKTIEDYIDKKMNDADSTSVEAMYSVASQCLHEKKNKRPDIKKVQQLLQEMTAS
Experiment: 2-hour 1 mM ATP IRAK4 Biochemical assay (as above, but with 100 pM IRAK4 and 1 mM ATP)
Settings: IRAK4 MSD BIOCHEMICAL (1 mM ATP) IC50 (μM), 100 pM IRAK4, 2 hours
Protocol: The 2-hour 10 μM ATP Biochemical Assay employs a MesoScale Detection (MSD) format.
The activity is quenched with 11 μl of 70 mM EDTA, pH 8.
To detect the phosphorylated biotinylated peptide substrate, 30 μl of the quenched reaction mixture is added to equivalent wells of a 384 well streptavidin coated MesoScale plate (Meso Scale Discovery #L21SA-1). After a 1 hour incubation of the plate for 1 hour at room temperature with gentle mixing, the plate wells are washed 3 times with 50 mM Tris, pH 7.5, 150 mM NaCl, 0.02% Tween-20.
A 25 μl volume of 1:500 anti-P-Threonine Rabbit polyclonal Antibody plus 1:500 Goat-anti-Rabbit Sulfo Tag Antibody (Meso Scale Discovery R32AB-1) in 50 mM Tris, pH 7.5, 150 mM NaCl, 0.02% Tween-20 plus 2% BSA is then added to each well. After a 1-hour incubation of the plate for 1 hour at room temperature with gentle mixing, the plate wells are washed, 3 times with 50 mM Tris, pH 7.5, 150 mM NaCl, 0.02% Tween-20. A 40 μl volume of 2×MSD Read Buffer (Meso Scale Discovery R92TC-1) is added to each well, and the plate is read immediately in an MSD Plate Reader (Meso Scale Discovery).
The 2-hour 1 mM ATP IRAK4 Biochemical assay was performed as described above, but with 100 pM IRAK4 and 1 mM ATP.

IC50 [µM] | Structure (SMILES)
0.022 | COc1nc(NC(=O)c2coc(C)n2)cn2cc(C34CCC(C)(C3)OC4)nc12 (stereo not drawn) [Example 471, N-(8-methoxy-2-(1-methyl-2-oxabicyclo[2.2.1]heptan-4-yl)imidazo[1,2-a]pyrazin-6-yl)-2-methyloxazole-4-carboxamide 2,2,2-trifluoroacetate]
0.001 | CC(C)Oc1nc2nc(C34COC(C)(C3)C4)cn2cc1NC(=O)c1cccc2ncnn12 [Example 348, N-(7-isopropoxy-2-(1-methyl-2-oxabicyclo[2.1.1]hexan-4-yl)imidazo[1,2-a]pyrimidin-6-yl)-[1,2,4]triazolo[1,5-a]pyridine-5-carboxamide]
0.043 | O=C(Nc1cc(Cl)c2nc(C3CCOCC3)cn2c1)c1cccc(C(F)F)n1 [Example 308, N-(8-chloro-2-(tetrahydro-2H-pyran-4-yl)imidazo[1,2-a]pyridin-6-yl)-6-(difluoromethyl)picolinamide]
0.003 | COCC(C)(C)c1cn2cc(NC(=O)c3cccc(C(F)F)n3)c(OC(C)C)cc2n1 [Example 527, 6-(difluoromethyl)-N-(7-isopropoxy-2-(1-methoxy-2-methylpropan-2-yl)imidazo[1,2-a]pyridin-6-yl)picolinamide]
0.007 | COc1nc(NC(=O)c2cccc(C(F)F)n2)cn2cc([C@@]34CC[C@@](C)(C3)OC4)nc12 (single isomer, unassigned) [Example 277, 6-(Difluoromethyl)-N-(8-methoxy-2-((1R*,4S*)-1-methyl-2-oxabicyclo[2.2.1]heptan-4-yl)imidazo[1,2-a]pyrazin-6-yl)picolinamide]
0.067 | COC(C)c1cc2nc(C3CCOCC3)cn2cc1NC(=O)c1cccc(C(F)F)n1 (stereo not drawn) [Example 313, 6-(difluoromethyl)-N-(7-(1-methoxyethyl)-2-(tetrahydro-2H-pyran-4-yl)imidazo[1,2-a]pyridin-6-yl)picolinamide]
0.025 | CC(C)Oc1nc(NC(=O)c2ccnc3ccnn23)cn2cc(C34COC(C)(C3)C4)nc12 [Example 481, N-(8-isopropoxy-2-(1-methyl-2-oxabicyclo[2.1.1]hexan-4-yl)imidazo[1,2-a]pyrazin-6-yl)pyrazolo[1,5-a]pyrimidine-7-carboxamide]
0.004 | COc1nc(NC(=O)c2cccc(C(F)F)n2)cn2cc(C3CCCOC3)nc12 (single isomer, unassigned) [Example 297, 6-(difluoromethyl)-N-(8-methoxy-2-(tetrahydro-2H-pyran-3-yl)imidazo[1,2-a]pyrazin-6-yl)picolinamide]
0.044 | COc1nc(NC(=O)c2cccc(C(F)F)n2)cn2cc(C3CC34CCOCC4)nc12 (stereo not drawn) [Example 558, 6-(difluoromethyl)-N-(8-methoxy-2-(6-oxaspiro[2.5]octan-1-yl)imidazo[1,2-a]pyrazin-6-yl)picolinamide 2,2,2-trifluoroacetate]
0.002 | CC(C)Oc1cc2nc(-c3cn(C)nc3C(F)F)cn2cc1NC(=O)c1cccc(C(F)F)n1 [Example 264, 6-(difluoromethyl)-N-(2-(3-(difluoromethyl)-1-methyl-1H-pyrazol-4-yl)-7-isopropoxyimidazo[1,2-a]pyridin-6-yl)picolinamide]
0.038 | O=C(Nc1cn2cc(C3CCOCC3)nc2c(OCC(F)(F)F)n1)c1cccc(C(F)F)n1 [Example 303, 6-(difluoromethyl)-N-(2-(tetrahydro-2H-pyran-4-yl)-8-(2,2,2-trifluoroethoxy)imidazo[1,2-a]pyrazin-6-yl)picolinamide]
0.001 | CCOc1cc2nc(C34COCC3C4)cn2cc1NC(=O)c1cccc(C(F)F)n1 (stereo not drawn) [Example 518, N-(2-(3-oxabicyclo[3.1.0]hexan-1-yl)-7-ethoxyimidazo[1,2-a]pyridin-6-yl)-6-(difluoromethyl)picolinamide]
0.001 | CCOc1nc2nc(C34COC(C)(C3)C4)cn2cc1NC(=O)c1cccc(C(F)F)n1 [Example 344, 6-(difluoromethyl)-N-(7-ethoxy-2-(1-methyl-2-oxabicyclo[2.1.1]hexan-4-yl)imidazo[1,2-a]pyrimidin-6-yl)picolinamide]
0.001 | O=C(Nc1cn2cc(C3CCOCC3)nc2cc1OCC1CC1(F)F)c1cccc(C(F)F)n1 (stereo not drawn) [Example 196, N-(7-((2,2-difluorocyclopropyl)methoxy)-2-(tetrahydro-2H-pyran-4-yl)imidazo[1,2-a]pyridin-6-yl)-6-(difluoromethyl)picolinamide]
0.015 | CC(C)Oc1nc(NC(=O)c2cnn3cccc(F)c23)cn2cc(C34COC(C)(C3)C4)nc12 [Example 482, 4-fluoro-N-(8-isopropoxy-2-(1-methyl-2-oxabicyclo[2.1.1]hexan-4-yl)imidazo[1,2-a]pyrazin-6-yl)pyrazolo[1,5-a]pyridine-3-carboxamide]
0.005 | CC(C)Oc1nc2nc(C3C4COCC43)cn2cc1NC(=O)c1ccn(C)n1 (stereo not drawn) [Example 500, N-(2-(3-oxabicyclo[3.1.0]hexan-6-yl)-7-isopropoxyimidazo[1,2-a]pyrimidin-6-yl)-1-methyl-1H-pyrazole-3-carboxamide Hydrochloride]
0.022 | CC(C)Oc1cc2nc(C3CCOCC3)cn2cc1NC(=O)c1cc2ncccn2n1 [Example 382, N-(7-isopropoxy-2-(tetrahydro-2H-pyran-4-yl)imidazo[1,2-a]pyridin-6-yl)pyrazolo[1,5-a]pyrimidine-2-carboxamide 2,2,2-trifluoroacetate]
0.732 | COc1c(F)cccc1C(=O)Nc1cc(C)c2nc(C34COC(C)(C3)C4)cn2c1 [Example 407, 3-fluoro-2-methoxy-N-(8-methyl-2-(1-methyl-2-oxabicyclo[2.1.1]hexan-4-yl)imidazo[1,2-a]pyridin-6-yl)benzamide]
0.007 | CC(C)Oc1nc2nc(C34COC(C)(C3)C4)cn2cc1NC(=O)c1ccnc2ccnn12 [Example 495, N-(7-isopropoxy-2-(1-methyl-2-oxabicyclo[2.1.1]hexan-4-yl)imidazo[1,2-a]pyrimidin-6-yl)pyrazolo[1,5-a]pyrimidine-7-carboxamide]
0.108 | O=C(Nc1cn2cc(C3CCOCC3)nc2cn1)c1csc(C2CC2)n1 [Example 332, 2-cyclopropyl-N-(2-(tetrahydro-2H-pyran-4-yl)imidazo[1,2-a]pyrazin-6-yl)thiazole-4-carboxamide]
0.002 | O=C(Nc1cn2cc(C3CCOCC3)nc2cc1OCC1CC12CCOC2)c1cccc(C(F)F)n1 (stereo not drawn) [Example 194, N-(7-((5-oxaspiro[2.4]heptan-1-yl)methoxy)-2-(tetrahydro-2H-pyran-4-yl)imidazo[1,2-a]pyridin-6-yl)-6-(difluoromethyl)picolinamide]
0.015 | O=C(Nc1cc(OC(F)F)c2nc(C3CCOCC3)cn2c1)c1cccc(C(F)F)n1 [Example 307, N-(8-(difluoromethoxy)-2-(tetrahydro-2H-pyran-4-yl)imidazo[1,2-a]pyridin-6-yl)-6-(difluoromethyl)picolinamide]
0.008 | CCOc1cc(NC(=O)c2cccc(C(F)(F)F)n2)cn2cc(C3CCCOC3)nc12 (single isomer, unassigned) [Example 288, N-(8-ethoxy-2-(tetrahydro-2H-pyran-3-yl)imidazo[1,2-a]pyridin-6-yl)-6-(trifluoromethyl)picolinamide]
0.068 | CC12CC(c3cn4cc(NC(=O)c5cccc(C(F)F)n5)ncc4n3)(CO1)C2 [Example 274, 6-(difluoromethyl)-N-(2-(1-methyl-2-oxabicyclo[2.1.1]hexan-4-yl)imidazo[1,2-a]pyrazin-6-yl)picolinamide]
0.006 | O=C(Nc1cn2cc(C3CCOCC3)nc2cc1Cl)c1cccc(C(F)F)n1 [Example 405, N-(7-chloro-2-(tetrahydro-2H-pyran-4-yl)imidazo[1,2-a]pyridin-6-yl)-6-(difluoromethyl)picolinamide 2,2,2-trifluoroacetate]

Structure (SMILES) | IC50 [µM]
CC1(C)CCC1Oc1cc2nc(C3CCOCC3)cn2cc1NC(=O)c1cccc(C(F)F)n1 (stereo not drawn) [Example 177, 6-(difluoromethyl)-N-(7-(2,2-dimethylcyclobutoxy)-2-(tetrahydro-2H-pyran-4-yl)imidazo[1,2-a]pyridin-6-yl)picolinamide] | 0.001
Cc1nc(C(=O)Nc2cn3cc(C45CCC(C)(C4)OC5)nc3c(OC3CCC3)n2)co1 (stereo not drawn) [Example 486, N-(8-cyclobutoxy-2-(1-methyl-2-oxabicyclo[2.2.1]heptan-4-yl)imidazo[1,2-a]pyrazin-6-yl)-2-methyloxazole-4-carboxamide 2,2,2-trifluoroacetate] | 0.016
